In patent US6169104A, “Di-aryl ethers and their derivatives as anti-cancer agents” (Large Scale Biology Corporation, priority 1998, dated 2001):

Legend:
[1] = system: Human leukemia (HL60) cells; experiment: In vitro metabolism in human leukemia cells with and without rat liver S9; format: cell-based; conditions: for effect of metabolism by S9 on activity: 4 hr incubation with vs without rat liver S9, cells counted 3 days later (FIG. 2)
Description: FIG. 2 illustrates the in vitro metabolism of BTO-956, 964, 966, and 967 in human leukemia cells. In this experiments, human leukemia cells (HL60) were incubated for 4 hours in the presence of BTO-956, BTO-964, BTO-966 or BTO-967, with (closed symbols) and without (open symbols) rat liver microsome fraction S9. Following the 4 hr exposure to drug and S9, the cells were rinsed and replated at a density of 2×10^5 cells per ml, and counted 3 days later.
To test for either of these possibilities, the compounds, i.e., BTO-956, BTO-964, BTO-966 and BTO-967, were incubated with a microsomal enzyme fraction, referred to as S9.
Human leukemia (HL60) cells were used to evaluate drug metabolism. Exposure to the test article was performed in the presence and absence of S9, prepared from the liver of adult male rats given a single intraperitoneal injection of Arachlor 1254 (500 mg/kg). The S9 consisted of the 9000×G supernatant of liver homogenized in 0.25 M sucrose-100 mM phosphate buffer (pH 7.4) (Molecular Toxicology, Inc.). Cofactors were 1 mM NADP and 5 mM sodium isocitrate. On the day of exposure, cultures of cells, with or without the metabolism mixture, were incubated for 4 hours in RPMI containing 5% FBS and graded doses of BTO956, 964, 966, or 967. The test agents were prepared in serial dilutions from 10 mM stock solutions in DMSO yielding a dose range 100 μM, 50 μM, 25 μM, 10 μM and 5 μM concentrations and a final DMSO concentration of 1%. In each case, cells were maintained at 37° C. under 5 percent CO2 in air. The experiments were conducted in 6-well tissue culture plates (Falcon) with an initial seeding density of 2×10^6 cells per well in 2 ml aliquots. The test compounds were added immediately to the medium in duplicate cultures. Treatment solution was removed by a series of low-speed centrifugations to pellet the cells, followed by removal of the supernatant and resuspension of cells in fresh RPMI containing 10% FBS.

[2] = system: met-1 mouse mammary tumors; experiment: In vivo efficacy against met-1 mouse mammary tumors
Description: Mammary fat pads of Balb/c immunodeficient (nude) mice were implanted with 1 mm^3 of mammary tumor tissue. These mammary tumors originated from the met-1 mouse mammary tumor cell line and have been propagated by passaging in vivo. When palpable tumors appeared, animals were subdivided into various treatment groups and treated daily with intraperitoneal injections of control vehicle, BTO-967 (50 mg/kg), or BTO-964 (50 mg/kg). A group of untreated control animals was included in the study, because agents used in the vehicle for these test articles (DMSO/ethanol/CremophorEL/PEG 400, 1: 0.5 : 0.5: 6) were themselves found to have cytotoxic activity. Twice weekly, the volumes of the tumors in each animal in each group were measured to gather information on tumor growth (volume) as a function of type of treatment, dose, and time.

Row | Compound | toxicity to HL60 cells ([1]; 4 hr exposure (FIG. 2)) | effect of metabolism by S9 on activity [1] | response of Met-1 tumors to treatment ([2]; 50 mg/kg daily i.p.) | Tumor Volume (mm^3) ([2]; 50 mg/kg daily intraperitoneal, 4 weeks post initiation of treatment, mean ± SEM, vehicle 1238 ± 170, none 1570 ± 219)
1 | COc1ccc(Oc2c(I)cc(C=O)cc2I)cc1 [BTO-964, 3,5-Diiodo-4-(4'-methoxyphenoxy)benzadehyde] | more toxic to HL60 cells than is BTO-956 | more resistant to metabolic degradation | positive response | 876±126 mm^3
2 | COC(=S)c1cc(I)c(Oc2ccc(OC)cc2)c(I)c1 [BTO-967, methyl 3,5-diiodo-4-(4'-methoxyphenoxy)thiobenzoate] | – | activated to more cytotoxic products | – | –
